Results from PubChem BioAssay (NCI).
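Test compounds were applied to cells in 96-well plates for 48 hours at 5 doses. GI50: concentration for 50% inhibition of growth. The concentration for full growth arrest is given as TGI.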

Key:
Assay in all cases: NCI anticancer screen, dose series, 48 h
ACHN renal = system: ACHN renal
CAKI-1 renal = system: CAKI-1 renal
COLO 205 colon = system: COLO 205 colon
HT29 colon = system: HT29 colon
LOX IMVI melanoma = system: LOX IMVI melanoma
SF-295 CNS = system: SF-295 CNS
SK-MEL-28 melanoma = system: SK-MEL-28 melanoma
SK-MEL-5 melanoma = system: SK-MEL-5 melanoma
SK-OV-3 ovarian = system: SK-OV-3 ovarian
SW-620 colon = system: SW-620 colon

Structure (SMILES)	GI50 (ACHN renal) [µM]	TGI (ACHN renal) [µM]	GI50 (CAKI-1 renal) [µM]	TGI (CAKI-1 renal) [µM]	GI50 (COLO 205 colon) [µM]	TGI (COLO 205 colon) [µM]	GI50 (HT29 colon) [µM]	TGI (HT29 colon) [µM]	GI50 (LOX IMVI melanoma) [µM]	TGI (LOX IMVI melanoma) [µM]	GI50 (SF-295 CNS) [µM]	TGI (SF-295 CNS) [µM]	GI50 (SK-MEL-28 melanoma) [µM]	TGI (SK-MEL-28 melanoma) [µM]	GI50 (SK-MEL-5 melanoma) [µM]	TGI (SK-MEL-5 melanoma) [µM]	GI50 (SK-OV-3 ovarian) [µM]	TGI (SK-OV-3 ovarian) [µM]	GI50 (SW-620 colon) [µM]	TGI (SW-620 colon) [µM]
CCOC(=O)c1c(C)c2c(n1C)CSc1cc(S(=O)(=O)c3ccccc3)c(=O)[nH]c1-2	26.3	> 100	21.1	> 100	14.3	36.3	16.3	34.5	24.1	> 100	14	61.9	37.2	> 100	13.2	29.6	28.9	> 100	35.1	> 100
O=C1CCC(=O)c2cc(Br)ccc2N1		> 100		> 100		> 100		> 100		> 100		> 100		> 100		> 100		> 100		> 100
COC(=O)C1CCc2c(OC)ccc(OC)c2C1=O (stereo not given)		> 100		> 100		> 100		> 100		> 100		> 100		> 100		> 100		> 100		> 100
COC(=O)c1c2c(c(C)[n+]([O-])c1C)C(=O)C(NCc1ccc(F)c(Cl)c1)=CC2=O	2.1	7.9	2.52	10.4	0.588	2.29	1.35	> 100	2.34	8.88	1.62	4.26	3.03	13.2	0.426	1.57	3.57	13.6	2.21	7.12
CS(=O)(=O)c1ccc(C(F)(F)F)cc1NC(=O)Nc1cnc(Oc2ccc(-c3cc(Cl)cnc3N)cc2)nc1	1.98	6.32	2.98	22.4	1.98	4.77	2.24	7.52	1.62	3.05	1.99	5.71	2.21	5.62	1.87	3.87	3.31	18	3.24	16.8
O=C1Nc2ccccc2SC1C1SC(=S)N(Cc2ccccc2)C1=O (stereo not given)	7.41	20.3	4.53	17.6	3.38	17.8	3.98	39.8	2.08	7.78	10.2	40.2	4.99	18	13.7	29.3	22.9	> 100	2.39	13.6
O=C(Nc1ccc(-n2cc(-c3ccncc3)c(-c3ccc(Cl)c(O)c3)n2)cc1)c1cc(Cl)cc(Cl)c1	10.4	> 100	2.03	> 24.6	9.36	> 100	2.68	> 23.6	1.19	2.62	0.738	2.79	2.42	> 30.8	1.46	2.93	> 21.2	> 100	3.72	> 28.8
Cc1ccc(NC2=C(Cl)C(=O)c3nc(C)ccc3C2=O)cc1	1.59	2.97	1.36	2.68	1.93	4.37	2.79	8.46	0.711	2.22	1.55	2.95	1.93	3.43	1.71	3.1	11.9	24.6	1.74	3.7
O=C(Oc1ccc([N+](=O)[O-])cc1)N1CCC(C(O)(c2ccc3c(c2)OCO3)c2ccc3c(c2)OCO3)CC1	> 100	> 100	> 100	> 100	> 100	> 100	> 100	> 100	> 100	> 100	> 100	> 100	> 100	> 100	> 100	> 100	> 100	> 100	> 100	> 100
C#C[C@]1(O)CC[C@H]2[C@@H]3CC=C4c5nc(Nc6ccc(OC)cc6OC)sc5CC[C@]4(C)[C@H]3CC[C@@]21C	2.06	10.2	1.39	5.74	2.14	4.78	1.29	6.4	1.45	2.97	0.249	0.613	0.712	2.7	1.73	3.26	1.83	7.02	1.55	3.71
CNC(=O)OCc1nc(S(C)=O)n(C)c1COC(=O)NC (stereo not given)		> 78.6		> 93.8		> 62.6		> 100		> 100		> 100		> 100		> 46.4		> 73.3		> 46.4
N#Cc1ccc(-n2cnc(NC(=O)[C@H]3CCN(C#N)C3)c2)cc1	2.55	> 100	2.48	> 100	0.372	1.93	1.29	7.3	1.27	> 100	2.79	> 66.3	2.64	> 100	2.08	6.13	3.77	> 51.4	1.46	26.4
O=C(O)[C@@H]1C[C@@H](O)CN1		> 100		> 100		> 100		> 100		> 100		> 100		> 100		> 100		> 100		> 100
